The target of experiment [1] is Mu-type opioid receptor (Homo sapiens, UniProt P35372). Briefly: biochemical. The experiment is classed as functional.
The target of experiment [2] is Sodium-dependent serotonin transporter (Homo sapiens, UniProt P31645).
Experiment [3] addresses T1, Progesterone receptor (Homo sapiens, UniProt P06401).
T1 sequence (P06401 whole entry): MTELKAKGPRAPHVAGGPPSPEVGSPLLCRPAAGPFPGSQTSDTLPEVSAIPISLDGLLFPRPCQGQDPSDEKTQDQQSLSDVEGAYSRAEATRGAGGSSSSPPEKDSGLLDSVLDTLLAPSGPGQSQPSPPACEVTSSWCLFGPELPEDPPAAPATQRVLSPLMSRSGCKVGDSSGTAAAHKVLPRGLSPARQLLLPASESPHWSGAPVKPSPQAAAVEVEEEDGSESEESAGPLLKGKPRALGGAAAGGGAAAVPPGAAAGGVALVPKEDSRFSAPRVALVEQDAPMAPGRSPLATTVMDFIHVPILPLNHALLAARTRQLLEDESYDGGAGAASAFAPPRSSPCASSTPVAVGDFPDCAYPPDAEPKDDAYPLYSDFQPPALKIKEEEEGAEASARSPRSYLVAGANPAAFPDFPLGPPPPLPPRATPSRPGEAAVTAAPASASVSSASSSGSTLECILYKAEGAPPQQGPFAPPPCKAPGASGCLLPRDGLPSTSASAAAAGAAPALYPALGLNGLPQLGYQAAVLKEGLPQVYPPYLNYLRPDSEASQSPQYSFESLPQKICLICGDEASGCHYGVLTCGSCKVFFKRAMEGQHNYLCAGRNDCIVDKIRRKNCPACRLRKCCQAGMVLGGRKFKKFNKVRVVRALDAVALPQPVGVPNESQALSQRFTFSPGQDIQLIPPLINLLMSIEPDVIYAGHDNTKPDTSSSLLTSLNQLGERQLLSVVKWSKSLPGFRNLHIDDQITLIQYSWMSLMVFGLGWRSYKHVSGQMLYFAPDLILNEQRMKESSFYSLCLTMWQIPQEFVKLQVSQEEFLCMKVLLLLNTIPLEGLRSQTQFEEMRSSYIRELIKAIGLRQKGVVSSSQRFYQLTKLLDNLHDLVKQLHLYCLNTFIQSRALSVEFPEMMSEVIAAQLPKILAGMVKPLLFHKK
The experiment is classed as functional.

Experiment [4] addresses T2, Endothelin-1 receptor (Homo sapiens, UniProt P25101).
T2 sequence (P25101 whole entry): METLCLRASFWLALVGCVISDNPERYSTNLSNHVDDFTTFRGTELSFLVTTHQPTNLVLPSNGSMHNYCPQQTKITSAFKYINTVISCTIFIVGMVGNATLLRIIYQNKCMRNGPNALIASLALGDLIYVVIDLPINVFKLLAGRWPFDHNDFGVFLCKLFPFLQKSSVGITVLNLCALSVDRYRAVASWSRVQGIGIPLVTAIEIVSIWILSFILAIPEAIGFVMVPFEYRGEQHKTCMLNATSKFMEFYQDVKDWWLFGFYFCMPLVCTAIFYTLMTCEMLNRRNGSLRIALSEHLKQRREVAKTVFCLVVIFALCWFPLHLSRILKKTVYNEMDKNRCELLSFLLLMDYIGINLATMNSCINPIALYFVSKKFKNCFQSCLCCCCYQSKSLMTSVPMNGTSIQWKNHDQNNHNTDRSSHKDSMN

Experiment [5] addresses T3, Muscarinic acetylcholine receptor M1 (Homo sapiens, UniProt P11229).
T3 sequence (P11229 whole entry): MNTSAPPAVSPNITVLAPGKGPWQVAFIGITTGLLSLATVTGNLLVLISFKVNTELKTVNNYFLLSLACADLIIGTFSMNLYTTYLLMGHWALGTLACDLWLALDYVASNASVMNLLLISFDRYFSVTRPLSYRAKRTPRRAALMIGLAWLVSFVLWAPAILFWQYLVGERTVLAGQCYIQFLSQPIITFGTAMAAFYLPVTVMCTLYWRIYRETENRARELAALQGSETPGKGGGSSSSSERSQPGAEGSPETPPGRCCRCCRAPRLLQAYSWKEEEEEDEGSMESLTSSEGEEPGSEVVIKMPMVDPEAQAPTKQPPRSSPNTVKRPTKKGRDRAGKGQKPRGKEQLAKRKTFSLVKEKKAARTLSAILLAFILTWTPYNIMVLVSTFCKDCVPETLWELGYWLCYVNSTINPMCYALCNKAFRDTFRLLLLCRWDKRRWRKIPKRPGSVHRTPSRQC
The experiment is classed as functional.

The target in experiment [6] is Voltage-dependent L-type calcium channel subunit alpha-1C (Rattus norvegicus, UniProt P22002). The format is functional.
Experiment [7] deals with T4, Alpha-2B adrenergic receptor (Homo sapiens, UniProt P18089).
T4 sequence (P18089 whole entry): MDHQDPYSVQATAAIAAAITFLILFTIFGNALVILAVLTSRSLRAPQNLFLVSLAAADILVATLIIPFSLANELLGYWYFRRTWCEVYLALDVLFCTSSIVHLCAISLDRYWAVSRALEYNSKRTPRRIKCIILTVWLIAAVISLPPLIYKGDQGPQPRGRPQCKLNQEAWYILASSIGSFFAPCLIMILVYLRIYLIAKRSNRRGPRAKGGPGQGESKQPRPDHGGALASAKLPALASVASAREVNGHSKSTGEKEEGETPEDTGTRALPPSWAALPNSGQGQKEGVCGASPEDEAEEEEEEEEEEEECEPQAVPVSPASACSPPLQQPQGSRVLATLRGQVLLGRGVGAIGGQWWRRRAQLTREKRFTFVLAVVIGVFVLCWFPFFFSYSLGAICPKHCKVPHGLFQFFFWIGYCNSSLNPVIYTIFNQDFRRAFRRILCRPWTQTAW

In experiment [8] the target is Histamine H1 receptor (Homo sapiens, UniProt P35367).
Experiment [9] has as its target Kappa-type opioid receptor (Homo sapiens, UniProt P41145).
The target of experiment [10] is T1, Progesterone receptor. The format is functional. This is another data set of the same source.
Experiment [11] has as its target Beta-2 adrenergic receptor (Homo sapiens, UniProt P07550).
Experiment [12] addresses D(3) dopamine receptor (Homo sapiens, UniProt P35462).

The structures appear in SMILES notation. Values joined by “and” are separate entries in the source; they are usually repeats but may differ in a detail not shown here. Equal entries are not always repeated.
Note: assay procedure not described here.

Chain of Sodium-dependent serotonin transporter (P31645 whole entry): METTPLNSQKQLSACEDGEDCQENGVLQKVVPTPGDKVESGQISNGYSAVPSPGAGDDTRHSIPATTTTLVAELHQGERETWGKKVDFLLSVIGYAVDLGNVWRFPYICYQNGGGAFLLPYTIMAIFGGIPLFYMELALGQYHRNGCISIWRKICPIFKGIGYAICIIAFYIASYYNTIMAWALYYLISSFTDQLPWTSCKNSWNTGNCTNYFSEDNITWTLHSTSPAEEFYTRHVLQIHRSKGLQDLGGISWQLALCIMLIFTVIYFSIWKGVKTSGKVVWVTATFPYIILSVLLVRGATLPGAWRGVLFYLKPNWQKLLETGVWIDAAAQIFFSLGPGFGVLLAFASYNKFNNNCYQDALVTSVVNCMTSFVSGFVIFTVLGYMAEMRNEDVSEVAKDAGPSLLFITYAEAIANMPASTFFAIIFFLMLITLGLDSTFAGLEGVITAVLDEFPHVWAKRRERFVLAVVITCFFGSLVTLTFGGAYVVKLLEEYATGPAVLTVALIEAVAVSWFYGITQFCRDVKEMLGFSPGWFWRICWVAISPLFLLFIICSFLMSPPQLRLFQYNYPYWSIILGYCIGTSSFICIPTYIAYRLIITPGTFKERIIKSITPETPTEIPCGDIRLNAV
Chain of Beta-2 adrenergic receptor (P07550 whole entry): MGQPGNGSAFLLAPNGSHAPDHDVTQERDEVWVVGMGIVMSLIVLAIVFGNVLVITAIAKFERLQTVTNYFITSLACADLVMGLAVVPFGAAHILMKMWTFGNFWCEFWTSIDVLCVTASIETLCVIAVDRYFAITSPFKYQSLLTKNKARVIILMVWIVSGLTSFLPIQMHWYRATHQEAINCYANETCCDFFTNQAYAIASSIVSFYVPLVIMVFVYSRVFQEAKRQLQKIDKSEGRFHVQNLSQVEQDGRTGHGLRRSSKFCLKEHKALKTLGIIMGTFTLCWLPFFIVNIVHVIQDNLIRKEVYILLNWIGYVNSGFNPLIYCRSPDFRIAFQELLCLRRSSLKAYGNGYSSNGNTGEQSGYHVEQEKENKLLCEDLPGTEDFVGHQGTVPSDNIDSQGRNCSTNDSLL
Chain of Histamine H1 receptor (P35367 whole entry): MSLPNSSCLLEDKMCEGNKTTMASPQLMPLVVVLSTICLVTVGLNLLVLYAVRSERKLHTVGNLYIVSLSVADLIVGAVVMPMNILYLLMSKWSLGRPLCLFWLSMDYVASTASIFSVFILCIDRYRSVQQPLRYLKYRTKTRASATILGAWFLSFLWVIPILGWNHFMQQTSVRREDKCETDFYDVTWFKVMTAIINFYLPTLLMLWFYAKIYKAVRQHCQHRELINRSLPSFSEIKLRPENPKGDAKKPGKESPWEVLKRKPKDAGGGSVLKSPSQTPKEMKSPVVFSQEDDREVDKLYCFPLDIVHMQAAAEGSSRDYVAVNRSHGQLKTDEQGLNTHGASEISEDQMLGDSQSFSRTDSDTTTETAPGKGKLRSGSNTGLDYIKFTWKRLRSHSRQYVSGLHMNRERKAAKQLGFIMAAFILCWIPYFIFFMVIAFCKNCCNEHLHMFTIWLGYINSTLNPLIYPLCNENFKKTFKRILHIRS
Chain of Voltage-dependent L-type calcium channel subunit alpha-1C (P22002 whole entry): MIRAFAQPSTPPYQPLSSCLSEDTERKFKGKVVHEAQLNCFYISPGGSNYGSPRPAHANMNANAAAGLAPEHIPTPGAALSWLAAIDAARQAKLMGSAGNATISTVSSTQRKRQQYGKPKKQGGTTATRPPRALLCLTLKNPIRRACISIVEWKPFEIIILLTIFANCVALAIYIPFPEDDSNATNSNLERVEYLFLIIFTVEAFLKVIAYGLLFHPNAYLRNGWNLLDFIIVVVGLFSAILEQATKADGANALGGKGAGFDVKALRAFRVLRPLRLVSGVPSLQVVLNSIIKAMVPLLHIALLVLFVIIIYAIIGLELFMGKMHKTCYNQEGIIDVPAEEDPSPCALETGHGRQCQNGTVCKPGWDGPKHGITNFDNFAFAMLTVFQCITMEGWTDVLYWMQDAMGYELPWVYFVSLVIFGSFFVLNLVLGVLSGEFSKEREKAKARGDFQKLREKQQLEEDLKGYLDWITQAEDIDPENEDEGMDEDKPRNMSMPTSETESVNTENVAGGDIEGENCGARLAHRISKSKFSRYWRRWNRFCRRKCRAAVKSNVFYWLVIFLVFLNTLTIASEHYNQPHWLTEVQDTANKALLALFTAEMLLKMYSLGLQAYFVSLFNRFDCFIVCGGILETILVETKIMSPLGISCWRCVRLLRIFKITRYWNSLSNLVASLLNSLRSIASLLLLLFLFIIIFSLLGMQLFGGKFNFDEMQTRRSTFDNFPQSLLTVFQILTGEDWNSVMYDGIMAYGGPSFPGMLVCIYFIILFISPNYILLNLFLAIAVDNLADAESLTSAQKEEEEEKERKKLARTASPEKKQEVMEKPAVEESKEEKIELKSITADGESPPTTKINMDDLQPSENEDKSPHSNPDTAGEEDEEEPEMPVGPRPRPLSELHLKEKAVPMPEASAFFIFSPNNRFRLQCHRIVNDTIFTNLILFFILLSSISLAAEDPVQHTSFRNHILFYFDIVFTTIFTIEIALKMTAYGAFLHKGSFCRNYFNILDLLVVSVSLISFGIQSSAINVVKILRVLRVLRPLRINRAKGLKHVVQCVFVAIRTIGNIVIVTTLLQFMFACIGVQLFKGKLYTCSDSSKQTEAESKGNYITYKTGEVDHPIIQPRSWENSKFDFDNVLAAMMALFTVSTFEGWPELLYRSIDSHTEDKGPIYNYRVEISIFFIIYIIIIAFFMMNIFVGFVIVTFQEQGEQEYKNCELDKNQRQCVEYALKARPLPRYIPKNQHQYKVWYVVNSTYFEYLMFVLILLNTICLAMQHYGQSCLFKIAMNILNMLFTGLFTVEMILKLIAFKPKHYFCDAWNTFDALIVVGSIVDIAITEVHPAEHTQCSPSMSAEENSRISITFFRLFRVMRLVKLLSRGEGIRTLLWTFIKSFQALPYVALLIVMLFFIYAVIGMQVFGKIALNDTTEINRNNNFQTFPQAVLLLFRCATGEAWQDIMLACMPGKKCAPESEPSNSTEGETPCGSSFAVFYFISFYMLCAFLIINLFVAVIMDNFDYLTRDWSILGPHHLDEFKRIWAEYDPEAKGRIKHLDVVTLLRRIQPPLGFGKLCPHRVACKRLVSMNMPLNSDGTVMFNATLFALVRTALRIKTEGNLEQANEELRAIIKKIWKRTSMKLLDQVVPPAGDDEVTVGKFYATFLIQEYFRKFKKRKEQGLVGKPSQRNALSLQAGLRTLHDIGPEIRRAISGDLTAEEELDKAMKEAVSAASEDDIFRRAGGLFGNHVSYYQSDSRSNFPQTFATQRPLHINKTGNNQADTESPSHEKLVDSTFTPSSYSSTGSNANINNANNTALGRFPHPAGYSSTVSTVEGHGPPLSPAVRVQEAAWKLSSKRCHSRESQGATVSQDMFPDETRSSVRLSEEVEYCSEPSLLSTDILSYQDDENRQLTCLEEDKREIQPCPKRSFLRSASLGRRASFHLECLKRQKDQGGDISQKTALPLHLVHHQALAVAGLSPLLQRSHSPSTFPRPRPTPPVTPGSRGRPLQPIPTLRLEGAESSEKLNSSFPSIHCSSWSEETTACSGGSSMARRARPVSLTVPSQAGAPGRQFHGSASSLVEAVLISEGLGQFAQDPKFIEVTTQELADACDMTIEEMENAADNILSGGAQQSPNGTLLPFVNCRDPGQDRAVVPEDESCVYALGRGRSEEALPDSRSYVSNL
Chain of Mu-type opioid receptor (P35372 whole entry): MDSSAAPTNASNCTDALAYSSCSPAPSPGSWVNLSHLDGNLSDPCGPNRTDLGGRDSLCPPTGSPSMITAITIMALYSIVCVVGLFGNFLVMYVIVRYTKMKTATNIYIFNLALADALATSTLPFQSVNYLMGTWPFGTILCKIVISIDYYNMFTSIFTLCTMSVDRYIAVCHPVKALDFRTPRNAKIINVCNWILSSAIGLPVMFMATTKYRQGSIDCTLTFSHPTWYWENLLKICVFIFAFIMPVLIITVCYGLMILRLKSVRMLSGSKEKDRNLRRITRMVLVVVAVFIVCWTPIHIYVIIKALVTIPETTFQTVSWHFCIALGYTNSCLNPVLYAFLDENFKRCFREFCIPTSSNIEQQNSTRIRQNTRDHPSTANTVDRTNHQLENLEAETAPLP
Chain of Kappa-type opioid receptor (P41145 whole entry): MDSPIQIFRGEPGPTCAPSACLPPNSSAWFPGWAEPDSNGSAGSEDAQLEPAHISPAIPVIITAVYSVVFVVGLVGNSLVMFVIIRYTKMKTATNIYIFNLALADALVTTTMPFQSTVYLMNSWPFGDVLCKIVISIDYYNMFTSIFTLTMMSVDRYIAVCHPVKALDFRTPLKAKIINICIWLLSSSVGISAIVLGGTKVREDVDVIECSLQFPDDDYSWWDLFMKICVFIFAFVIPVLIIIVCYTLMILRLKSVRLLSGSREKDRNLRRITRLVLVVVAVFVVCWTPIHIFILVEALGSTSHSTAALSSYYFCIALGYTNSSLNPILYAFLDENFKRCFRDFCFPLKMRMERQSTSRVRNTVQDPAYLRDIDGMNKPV
Chain of D(3) dopamine receptor (P35462 whole entry): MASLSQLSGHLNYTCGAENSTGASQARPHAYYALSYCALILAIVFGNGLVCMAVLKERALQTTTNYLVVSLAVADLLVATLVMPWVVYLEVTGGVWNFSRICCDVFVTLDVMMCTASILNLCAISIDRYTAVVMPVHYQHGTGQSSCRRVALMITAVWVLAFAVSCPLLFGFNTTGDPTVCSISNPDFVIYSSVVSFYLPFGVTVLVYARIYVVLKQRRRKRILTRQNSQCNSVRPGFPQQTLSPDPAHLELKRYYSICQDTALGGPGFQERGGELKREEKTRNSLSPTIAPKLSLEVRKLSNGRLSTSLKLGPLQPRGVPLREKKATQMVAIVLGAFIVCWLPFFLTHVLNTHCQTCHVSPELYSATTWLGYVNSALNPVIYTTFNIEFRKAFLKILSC

As for `CC(C)c1cc2c(cc1S(=O)(=O)O)[C@@]1(C)CCC[C@@](C)(C(=O)O)[C@@H]1CC2` [ECABET], the AC50 in experiment [1], in experiment [2], in experiment [3], in experiment [4], in [5] and in experiment [6] was above 30 µM each time. Also, the AC50 in experiment [7] was above 30 µM; in experiment [8], above 30 µM; in [9], 19 µM; in experiment [10], above 30 µM; in experiment [11], above 30 µM; in [12], above 30 µM.
For the compound `CCCN(CC)C(CC)C(=O)Nc1c(C)cccc1C` (stereo not drawn) [ETIDOCAINE], the AC50 in experiment [1], in experiment [2], in [3], in experiment [4], in [5] and in [6] was above 30 µM in each case. Further, the AC50 in experiment [7], in experiment [8], in experiment [9], in [10], in experiment [11] and in experiment [12] was above 30 µM throughout.
Regarding `CCCCCCOC(=O)CCC(=O)CN` [HEXAMINOLEVULINATE], the AC50 in experiment [1], in [2], in experiment [3], in experiment [4], in experiment [5] and in experiment [6] was above 30 µM throughout. For the same compound, the AC50 in [7], in experiment [8], in experiment [9], in experiment [10], in [11] and in [12] was above 30 µM each time.
For `CC(C)OC(=O)C(C(=O)OC(C)C)=C1SC=CS1` [MALOTILATE], the AC50 in [1], in experiment [2], in experiment [3], in [4], in experiment [5] and in experiment [6] was above 30 µM in each case. The AC50 in [7], in [8], in [9], in experiment [10], in experiment [11] and in experiment [12] was above 30 µM in each case.
Regarding `CN(c1nccc(=O)[nH]1)C1CCN(c2nc3ccccc3n2Cc2ccc(F)cc2)CC1` [MIZOLASTINE], the AC50 in experiment [1] is above 30 µM; in experiment [2], above 30 µM; in [3], above 30 µM; in experiment [4] it was above 30 µM; in [5], 0.011 µM; in experiment [6], above 30 µM. The AC50 in [7], in experiment [8], in experiment [9], in [10], in experiment [11] and in experiment [12] was above 30 µM in each case.
Turning to `CC[N+]1(C)CCCC(OC(=O)C(O)(c2ccccc2)c2ccccc2)C1` (stereo not drawn) [PIPENZOLATE], the AC50 in experiment [1] is above 30 µM; in experiment [2], above 30 µM; in experiment [3] it was above 30 µM; in [4] it was above 30 µM; in [5], 0.023 µM; in experiment [6] it was above 30 µM. The AC50 is above 30 µM in experiment [7]; 27 µM in experiment [8]; above 30 µM in experiment [9]; above 30 µM in experiment [10]; above 30 µM in experiment [11]; above 30 µM in experiment [12].
Turning to `CCN(CC)CC(=O)Oc1ccc(NC(C)=O)cc1` [PROPACETAMOL], the AC50 in experiment [1], in [2], in experiment [3], in experiment [4], in experiment [5] and in experiment [6] was above 30 µM each time. Moreover, the AC50 in [7] was above 30 µM; in experiment [8] it was above 30 µM; in experiment [9], 18 µM; in experiment [10], above 30 µM; in experiment [11], above 30 µM; in experiment [12], above 30 µM.
`CCCOC(C(=O)OC1CCN(C)CC1)(c1ccccc1)c1ccccc1` [PROPIVERINE]: the AC50 was 3.6 µM in experiment [1]; above 30 µM in [2]; above 30 µM in experiment [3]; above 30 µM in experiment [4]; 1.7 µM in experiment [5]; above 30 µM in experiment [6]. Moreover, the AC50 in experiment [7] was above 30 µM; in experiment [8], 18 µM; in experiment [9], 11 µM; in experiment [10] it was above 30 µM; in experiment [11], above 30 µM; in experiment [12] it was 2.5 µM.
As for `CC(NCCc1ccc(O)cc1)C(O)c1ccc(O)cc1` (stereo not drawn) [RITODRINE], the AC50 was 8.1 µM in experiment [1]; 16.3 µM in experiment [2]; above 30 µM in experiment [3]; above 30 µM in [4]; above 30 µM in [5]; above 10 µM in experiment [6]. Moreover, the AC50 in experiment [7] is above 30 µM; in experiment [8], above 30 µM; in [9] it was 14.4 µM; in experiment [10] it was above 30 µM; in experiment [11], 4.71 µM and 4.14 µM; in [12], above 30 µM.

The AC50 is the concentration at which the activity in the assay is half-maximal.
